Where two headings read alike, the source gives them in different places.
What was measured:
TYK2 JH2 = biological target: T1, TYK2 JH2 (Homo sapiens, UniProt P29597); assay: TYK2 JH2 binding assay (KINOMEscan KdELECT competitive binding); conditions: TYK2 JH2 domain
T1 construct: purchased DiscoverX (KINOMEscan KdELECT service); host or cells: E. coli BL21-derived (T7 phage display) or HEK-293
In short: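 JH2-domain fragment, expressed as T7 phage tag in BL21-derived E. coli or DNA-tagged from HEK-293, competed with test compound against bead-immobilized biotinylated ligand in binding buffer (0.9% DMSO). 1 h shaking at room temperature; bound kinase eluted with 0.5 μM free ligand and quantified by qPCR. Kd from 11-point 3-fold dilutions.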

[1] = test system: JAK1/TYK2 pSTAT5 (Tyr694/699) in THP-1 cell line; assay: IFNa-stimulated JAK1/TYK2 pSTAT5 (Tyr694/699) inhibition cellular assay, AlphaLISA; assay type: cell-based; conditions: Homo sapiens, THP-1 cells, AlphaLISA (Assay B)
In short: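 THP-1 cells (2e4/well) in HBSS preincubated 1 h at 37° C. with compound (final 10000–0.04 nM, 8 points, 6-fold), then stimulated with IFNa (100 ng/mL stock) for 30 min before lysis. pSTAT5 (Tyr694/699) read by AlphaLISA at 615 nm; IC50 from four-parameter logistic fit with bottom fixed at 0 and Hill slope at −1.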

[2] = DiscoverX KINOMEscan KdELECT (Assay A), read-out: Biochemical TYK2_DiscoverX_JH2_BND_Kd
[3] = IFNa-stimulated, read-out: Cellular_THP1_IFNa-pSTATS_TYK2
[4] = KINOMEscan KdELECT (Assay A), read-out: Biochemical TYK2_DiscoverX_JH2_BND_Kd
[5] = IFNa-stimulated pSTAT5 (Tyr694/699), read-out: Cellular_THP1_IFNa-pSTATS_TYK2
[6] = KINOMEscan KdELECT (Assay A), read-out: Biochemical TYK2_JH2_Kd
[7] = IFNa-stimulated, read-out: Cellular THP1_IFNa-pSTATS_IC50

T1 sequence (P29597 589-875 limits assumed): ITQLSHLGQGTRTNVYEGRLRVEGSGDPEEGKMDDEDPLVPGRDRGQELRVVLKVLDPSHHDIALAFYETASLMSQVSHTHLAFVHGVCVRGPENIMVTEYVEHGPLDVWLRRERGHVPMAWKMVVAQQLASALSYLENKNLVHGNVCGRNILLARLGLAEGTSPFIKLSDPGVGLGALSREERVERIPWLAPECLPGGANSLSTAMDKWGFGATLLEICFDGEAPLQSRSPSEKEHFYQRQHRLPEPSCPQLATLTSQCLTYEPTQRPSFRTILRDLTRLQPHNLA

| Structure (SMILES) | Kd (TYK2 JH2; [2]) [µM] | IC50 [1, 3] [µM] | Kd (TYK2 JH2; [4]) [µM] | further results |
| --- | --- | --- | --- | --- |
| CNc1ncc(-c2nc3ccc(N4CCOCC4)cn3n2)c2cc(NC(=O)C3CC34CC4)ncc12 (centres unmarked) [Example 531, N-(8-(methylamino)-5-(6-morpholino-[1,2,4]triazolo[1,5-a]pyridin-2-yl)-2,7-naphthyridin-3-yl)spiro[2.2]pentane-1-carboxamide] | ≤ 0.1 | ≤ 0.5 | – | – |
| CNc1ncc(C#Cc2cnn(C)n2)c2cc(NC(=O)C3CC3)ncc12 [Example 653, N-(5-((2-methyl-2H-1,2,3-triazol-4-yl)ethynyl)-8-(methylamino)-2,7-naphthyridin-3-yl)cyclopropanecarboxamide] | – | ≤ 0.5 | ≤ 0.1 | – |
| CNc1ncc(C#Cc2cn(C)nn2)c2cc(NC(=O)[C@H]3C[C@H]3C)ncc12 [Example 1009] | – | – | ≤ 0.1 | IC50 [1, 5]: ≤ 0.5 µM |
| CNc1ncc(-c2nc3cc(O[C@H]4C[C@@H](COC)C4)ccc3o2)c2cc(NC(=O)C3CC3)ncc12 [Example 347, N-(5-(5-((1s,3s)-3-(methoxymethyl)cyclobutoxy)benzo[d]oxazol-2-yl)-8-(methylamino)-2,7-naphthyridin-3-yl)cyclopropanecarboxamide] | ≤ 0.1 | ≤ 0.5 | – | – |
| [2H]C([2H])([2H])n1ccc(C#Cc2cnc(NC)c3cnc(NC(=O)C4CC4)cc23)n1 [Example 900, N-(5-((1-(methyl-d3)-1H-pyrazol-3-yl)ethynyl)-8-(methylamino)-2,7-naphthyridin-3-yl)cyclopropanecarboxamide] | – | ≤ 0.5 | ≤ 0.1 | – |
| CNc1ncc(-c2nc3cc(N4CC5CC(CN(C)C5)C4)ccc3o2)c2cc(NC(=O)C3CC3)ncc12 [Example 325, N-(5-(5-(7-methyl-3,7-diazabicyclo[3.3.1]nonan-3-yl)benzo[d]oxazol-2-yl)-8-(methylamino)-2,7-naphthyridin-3-yl)cyclopropanecarboxamide] | ≤ 0.1 | ≤ 0.5 | – | – |
| CNc1ncc(C#Cc2ccc(C(C)(C)O)cn2)c2cc(NC(=O)C3CC3)ncc12 [Example 662, N-(5-((5-(2-hydroxypropan-2-yl)pyridin-2-yl)ethynyl)-8-(methylamino)-2,7-naphthyridin-3-yl)cyclopropanecarboxamide] | – | ≤ 0.5 | ≤ 0.1 | – |
| CNc1ncc(C#Cc2cnc(C)n2C)c2cc(NC(=O)[C@H]3C[C@H]3C)ncc12 [Example 1011] | – | – | ≤ 0.1 | IC50 [1, 5]: ≤ 0.5 µM |
| CNc1ncc(-c2nc3cc(O[C@H]4C[C@@H](OC)C4)ccc3o2)c2cc(NC(=O)C3CC3)ncc12 [Example 200, N-(5-(5-((1s,3s)-3-methoxycyclobutoxy)benzo[d]oxazol-2-yl)-8-(methylamino)-2,7-naphthyridin-3-yl)cyclopropanecarboxamide] | ≤ 0.1 | ≤ 0.5 | – | – |
| CNc1ncc(-c2nc3ccc(N4CCO[C@H](C)C4)cn3n2)c2cc(NC(=O)[C@H]3C[C@H]3F)ncc12 [Example 548, (1R,2R)-2-fluoro-N-(8-(methylamino)-5-(6-((R)-2-methylmorpholino)-[1,2,4]triazolo[1,5-a]pyridin-2-yl)-2,7-naphthyridin-3-yl)cyclopropane-1-carboxamide] | ≤ 0.1 | ≤ 0.5 | – | – |
| CNc1ncc(-c2ccc(N3CCC3CC#N)cc2)c2cc(NC(=O)C3CC3)ncc12 (centres unmarked) [Example 860, N-(5-(4-(2-(cyanomethyl)azetidin-1-yl)phenyl)-8-(methylamino)-2,7-naphthyridin-3-yl)cyclopropanecarboxamide] | – | > 0.5 | ≤ 0.1 | – |
| CNc1ncc(C#Cc2ncn(C)n2)c2cc(NC(=O)C3CC3)ncc12 [Example 597, N-(5-((1-methyl-1H-1,2,4-triazol-3-yl)ethynyl)-8-(methylamino)-2,7-naphthyridin-3-yl)cyclopropanecarboxamide] | – | ≤ 0.5 | ≤ 0.1 | – |
| CNc1ncc(C#Cc2ccc(OC3CN(C(=O)C4CC4)C3)cc2)c2cc(NC(=O)C3CC3)ncc12 [Example 771, N-(5-((4-((1-(cyclopropanecarbonyl)azetidin-3-yl)oxy)phenyl)ethynyl)-8-(methylamino)-2,7-naphthyridin-3-yl)cyclopropanecarboxamide] | – | ≤ 0.5 | ≤ 0.1 | – |
| CNc1ncc(-c2nc3cc(C4CCN([C@@]5(C)COC[C@H]5O)CC4)ccc3o2)c2cc(NC(=O)C3CC3)ncc12 (racemic) [Example 260, N-(5-(5-(1-(4-hydroxy-3-methyltetrahydrofuran-3-yl)piperidin-4-yl)benzo[d]oxazol-2-yl)-8-(methylamino)-2,7-naphthyridin-3-yl)cyclopropanecarboxamide] | ≤ 0.1 | ≤ 0.5 | – | – |
| CNc1ncc(C#Cc2ccc3nc4n(c3c2)CCOC4)c2cc(NC(=O)C3CC3)ncc12 [Example 720, N-(5-((3,4-dihydro-1H-benzo[4,5]imidazo[2,1-c][1,4]oxazin-7-yl)ethynyl)-8-(methylamino)-2,7-naphthyridin-3-yl)cyclopropanecarboxamide] | – | ≤ 0.5 | ≤ 0.1 | – |
| CNc1ncc(C#Cc2ccc(OC3CN(C(C)=O)C3)cc2)c2cc(NC(=O)[C@@H]3C[C@@H]3C(F)F)ncc12 (single isomer, unassigned) [Example 777] | – | ≤ 0.5 | ≤ 0.1 | – |
| CNc1ncc(-c2nc(-c3ncnn3C)co2)c2cc(NC(=O)C3CC3)ncc12 [Example 831, N-(5-(4-(1-methyl-1H-1,2,4-triazol-5-yl)oxazol-2-yl)-8-(methylamino)-2,7-naphthyridin-3-yl)cyclopropanecarboxamide] | – | > 0.5 | ≤ 0.1 | – |
| CNc1ncc(N2CCCCC2)c2cc(NC(=O)C3CC3)ncc12 [Example 56, N-(8-(methylamino)-5-(piperidin-1-yl)-2,7-naphthyridin-3-yl)cyclopropanecarboxamide] | – | – | – | Kd (TYK2 JH2; [6]): ≤ 0.1 µM; IC50 [1, 7]: > 0.5 µM |
| CNc1ncc(-c2ccncn2)c2cc(NC(=O)C3CC3)ncc12 [Example 50, N-(8-(methylamino)-5-(pyrimidin-4-yl)-2,7-naphthyridin-3-yl)cyclopropanecarboxamide] | – | – | – | Kd (TYK2 JH2; [6]): ≤ 0.1 µM; IC50 [1, 7]: > 0.5 µM |
| [2H]C([2H])([2H])Nc1ncc(-c2nc3ccccc3o2)c2cc(NC(C)=O)ncc12 [Example 431, N-(5-(benzo[d]oxazol-2-yl)-8-((methyl-d3)amino)-2,7-naphthyridin-3-yl)acetamide] | ≤ 0.1 | ≤ 0.5 | – | – |
| CNc1ncc(-c2ccccc2)c2cc(NC(=O)C3CC3)nnc12 [Example 178, N-(8-(methylamino)-5-phenylpyrido[3,4-c]pyridazin-3-yl)cyclopropanecarboxamide] | – | – | – | Kd (TYK2 JH2; [6]): ≤ 0.1 µM; IC50 [1, 7]: > 0.5 µM |
| CNc1ncc(C#Cc2ccc(P(C)(C)=O)cc2)c2cc(NC(=O)C3CC3)ncc12 [Example 769, N-(5-((4-(dimethylphosphoryl)phenyl)ethynyl)-8-(methylamino)-2,7-naphthyridin-3-yl)cyclopropanecarboxamide] | – | ≤ 0.5 | ≤ 0.1 | – |
| CNc1ncc(-c2nc3cc(F)c(N4CCOC(C)C4)cn3n2)c2cc(NC(=O)C3CC3)ncc12 (centres unmarked) [Example 499, N-(5-(7-fluoro-6-(2-methylmorpholino)-[1,2,4]triazolo[1,5-a]pyridin-2-yl)-8-(methylamino)-2,7-naphthyridin-3-yl)cyclopropanecarboxamide] | ≤ 0.1 | ≤ 0.5 | – | – |
| CC[C@@H]1C[C@H]1C(=O)Nc1cc2c(-c3nc4ccc(N5CCOCC5)cn4n3)cnc(NC)c2cn1 (single isomer, unassigned) [Example 586] | ≤ 0.1 | ≤ 0.5 | – | – |
| CNc1ncc(C#Cc2ccc(O)c(C#N)c2)c2cc(NC(=O)C3CC3)ncc12 [Example 608, N-(5-((3-cyano-4-hydroxyphenyl)ethynyl)-8-(methylamino)-2,7-naphthyridin-3-yl)cyclopropanecarboxamide] | – | ≤ 0.5 | ≤ 0.1 | – |
| CNc1ncc(-c2nc3cc(OCC45CCCN4CCC5)ccc3o2)c2cc(NC(=O)C3CC3)ncc12 [Example 349, N-(8-(methylamino)-5-(5-((tetrahydro-1H-pyrrolizin-7a(5H)-yl)methoxy)benzo[d]oxazol-2-yl)-2,7-naphthyridin-3-yl)cyclopropanecarboxamide] | ≤ 0.1 | ≤ 0.5 | – | – |
| CNc1ncc(C#Cc2ccc3nc(C)sc3c2)c2cc(NC(=O)C3CC3)ncc12 [Example 628, N-(8-(methylamino)-5-((2-methylbenzo[d]thiazol-6-yl)ethynyl)-2,7-naphthyridin-3-yl)cyclopropanecarboxamide] | – | ≤ 0.5 | ≤ 0.1 | – |
| CNc1ncc(-c2nc3cc(N4CCOCC4)ccc3o2)c2cc(NC(=O)C3C[C@@H]3C(F)(F)F)ncc12 (some centres unmarked) [Example 1065, N-(8-(methylamino)-5-(5-morpholinobenzo[d]oxazol-2-yl)-2,7-naphthyridin-3-yl)-2-(trifluoromethyl)cyclopropane-1-carboxamide] | – | – | ≤ 0.1 | IC50 [1, 5]: ≤ 0.5 µM |
